The source of these data is patent US4868171A, “Antibiotic A 40926 N-acylaminoglucuronyl aglycons and antiobiotic A 40926 aglycon” (Gruppo Lepetit S.p.A., priority 1986, dated 1989).

The structures appear in SMILES notation. Converted amounts (≈) assume the structure as drawn.

The test system of test [1] is Escherichia coli L47 SKF 12140. Briefly: MIC determination, standard dilution test (Isosensitest broth). Particulars: L47SKF12140, 24 h. Type of test: cell-based.
Test [2] deals with S. pyogenes C 203 (L 49). The test is described as follows: Experimental septicemia in the mouse. It counts as in vivo, CD-1 mice infected with S. pyogenes. Particulars: Streptococcus pyogenes, sc, 168 h, subcutaneous immediately after infection, survival on 7th day. The method, then: The antimicrobial activity of the compounds of the invention is confirmed also in experimental septicemia in the mouse. Control and treatment groups contained ten CD-1 mice (Charles River) weighing 18-22 g. They were infected intraperitoneally with 0.5 ml of bacterial suspension prepared by diluting an overnight culture of S. pyogenes C 203 (L 49) with sterile peptonized saline. Inocula were adjusted so that untreated animals died of septicemia within 48 h. The compounds to be tested were administered subcutaneously immediately after infection. On the 7th day, the ED50 in mg/kg was calculated by the method of Spearman and Karber (D. J. Finney "Statistical Methods in Biological Assay", Griffin, page 524, 1952) from the percentage of surviving animals at each dose.

The subject of test [3] is Neisseria gonorrhoeae L997 ISM68/126. Briefly: MIC determination, standard dilution test (GC base broth + 1% Isovitalex). Type of test: cell-based. Particulars: L997ISM68/126, 48 h, CO2-enriched.
Test [4] has as its system Staph. epidermidis L147 ATCC 12228 (coagulase negative). Briefly: MIC determination, standard dilution test (Isosensitest broth). Type of test: cell-based. Particulars: Staphylococcus epidermidis, ATCC12228, 24 h.
Test [5] concerns Clostridium perfringens L290 ISS 30543. Briefly: microbe, parasite or virus in culture. Type of test: cell-based. Particulars: L290ISS30543, 24 h.
The test system of test [6] is Strep. faecalis L149 ATCC 7080. Briefly: MIC determination, standard dilution test (Isosensitest broth). It counts as cell-based. Particulars: Enterococcus faecalis, ATCC7080, 24 h.
In test [7] the test system is Strep. pyogenes L49 C203. Briefly: MIC determination, standard dilution test (Todd-Hewitt broth). Type of test: cell-based. Particulars: Streptococcus pyogenes, L49C203, 24 h.
Test [8] concerns Strep. mitis L796 (clinical isolate). Described as above. It counts as cell-based. Particulars: Streptococcus mitis, 24 h.
For test [9], the system named is Strep. pneumoniae L44 UC41. The test is described as above. Type of test: cell-based. Particulars: Streptococcus pneumoniae, 24 h.
Test [10] relates to Bacteroides fragilis L1010 ATCC 23745. Briefly: MIC determination, agar dilution (Wilkins-Chalgren agar, anaerobic). Type of test: cell-based. Particulars: ATCC23745, 48 h.
The test system of test [11] is Clostridium difficile L1363 ATCC 9689. The test is described as above. Type of test: cell-based. Particulars: Clostridioides difficile, ATCC9689, 48 h.
The test system of test [12] is Mycoplasma gallisepticum L431 S6 Weybridge. Briefly: MIC determination, standard dilution test (PPLO broth). It counts as cell-based. Particulars: Mycoplasmoides gallisepticum; PPLO broth + 10% horse serum + 1% glucose, 48 h.
Test [13] concerns Staph. aureus L165. Briefly: MIC determination, standard dilution test (Isosensitest broth). It counts as cell-based. Particulars: Staphylococcus aureus.
Test [14] relates to Propionibacterium acnes L1014 ATCC 6919. Briefly: MIC determination, agar dilution (Wilkins-Chalgren agar, anaerobic). Type of test: cell-based. Particulars: Cutibacterium acnes, ATCC6919, 48 h.
In test [15] the test system is Haemophilus influenzae L 970 type b ATCC 19418. The test is described as follows: MIC determination, standard dilution test (Brain Heart broth + 1% Supplement C). Type of test: cell-based. Particulars: ATCC19418, 48 h.

Turning to `CNC1C(=O)NC2Cc3ccc(cc3)Oc3cc4cc(c3O)Oc3ccc(cc3Cl)C(O)C3NC(=O)C(NC(=O)C4NC(=O)C(NC2=O)c2cc(cc(O)c2Cl)Oc2cc1ccc2O)c1ccc(O)c(c1)-c1c(O)cc(O)cc1C(C(=O)O)NC3=O` (stereo not shown) [Antibiotic A 40926 aglycon], the MIC turned out to be 128 µg/mL (≈ 106 µM) in [1]; 16 µg/mL in test [3]; 0.13 µg/mL (≈ 0.107 µM) in test [4]; 0.25 µg/mL (≈ 0.206 µM) in [5]; 0.5 µg/mL (≈ 0.412 µM) in test [6]; 0.5 µg/mL (≈ 0.412 µM) in test [7]. In addition, the MIC is 0.5 µg/mL (≈ 0.412 µM) in test [8]; 1 µg/mL (≈ 0.824 µM) in test [9]; 32 µg/mL (≈ 26.4 µM) in [10]; 1 µg/mL (≈ 0.824 µM) in test [11]; over 128 µg/mL in test [12]; 0.25 µg/mL (≈ 0.206 µM) in test [13] (L165, 24 h, Staph. aureus L165 (10^6 cfu/ml)). For the same compound, the MIC amounted to 0.13 µg/mL (≈ 0.107 µM) in test [13] (Staph. aureus L165, 24 h, about 10^4-10^5 cfu/ml); 1 µg/mL (≈ 0.824 µM) in [14]; 32 µg/mL in [15]. The same compound displayed an ED50 in [2] of 6.2 mg/kg.
